The values that follow come from US20240207304A1, “Combination Therapies Comprising C/EBP Alpha saRNA” (MiNA Therapeutics Limited, priority 2021, published 2024).

The test system of the assay is NAFLD and IR genes. As to the kind of experiment: Effects on NAFLD and IR gene expression in the liver. The text has this:
Abbreviations in Table 4-1 and Table 4-2: NAFLD: non-alcoholic fatty liver disease; IR: insulin resistance; DNL: de novo lipogenesis; FA: fatty acid; TG: triglycerides; LPL: lipoprotein lipase; HP: hepatic lipase; CHOL: cholesterol.

SMILES strings stand for the structures.

Turning to `O=C1[C@H](CC[C@H](O)c2ccc(F)cc2)[C@@H](c2ccc(O)cc2)N1c1ccc(F)cc1` [Ezetimibe], the “Effect on ACACA (ACC1)” value is given as “minor up”, the “Effect on ACACB (ACC2)” value is given as “up”, the “Effect on APOC3” value is reported as “down” and the “Effect on CD36” value is “minor down”. Further, the “Effect on ChREBP (MLX1PL)” value is recorded as “up”, the “Effect on DGAT2” value is reported as “minor down”, the “Effect on FAS” value was “down” and the “Effect on LDLR” value is reported as “minor down”. Also, the “Effect on MTP (MTTP1)” value was “up”, the “Effect on PPARα” value is “up”, the “Effect on PPARγ” value is listed as “up” and the “Effect on PPARγ-CoA 1α” value was “up”. Also, the “Effect on PPARγ-CoA 1β (PERC)” value is listed as “up”, the “Effect on SREBP-1c” value is on record as “up” and the “Effect on mTOR” value was “no change”.
